# Results: ChEMBL document CHEMBL1150741, “Polygodial, an antifungal potentiator” (1988)
# Calls of active or inactive are those of the source. No cut-off for these calls is given here. Starred links: 1 amine or outer side, 2 acyl side, 3 side chain; linkers in the order of their positions; H or OH if unused. Positions of bridges follow the written chain, without caps; N, C: chain ends. Non-standard residues stand in square brackets, D forms with d. Residues, ends and D or L forms follow the SMILES beside them. Chains are numbered I, II in the order given. Actinocin(9to1) = Cc1c2oc3c(C)ccc(C(=O)[*:1])c3nc-2c(C(=O)[*:2])c(N)c1=O; NMeV = CN[C@H](C(=O)O)C(C)C; Sar = CNCC(=O)O
# How the values were obtained:
# Proteus vulgaris = test: Antimicrobial activity against Proteus vulgaris IAM 12003 after 2 days; format: functional; settings: IAM 12003, 48 h
# Sclerotinia = test: Antimicrobial activity against Sclerotinia libertiana SS after 2 days; format: functional; settings: 48 h
# Cyberlindnera jadinii [1] = test: Antimicrobial activity against Candida utilis ATCC 42402 after 2 days; format: functional; settings: for MIC: Williopsis jadinii, ATCC 42402, 48 h
# Bacillus subtilis = test: Antimicrobial activity against Bacillus subtilis K-49 after 2 days; format: functional; settings: K-49, 48 h
# Aspergillus niger = test: Antimicrobial activity against Aspergillus niger ATCC 6275 after 2 days; format: functional; settings: ATCC 6275, 48 h
# Saccharomyces cerevisiae [2] = test: Antimicrobial activity against Saccharomyces cerevisiae IFO 0203 after 2 days; format: functional; settings: IFO 0203, 48 h
# Wickerhamomyces anomalus [3] = test: Antimicrobial activity against Hansenula anomala IFO 0136 after 2 days; format: functional; settings: IFO 0136, 48 h
# [4] = system: Rhizopus microsporus var. chinensis; test: Antimicrobial activity against Rhizopus chinensis IFO 4745 after 2 days; format: functional; settings: IFO 4745, 48 h
# Mucor mucedo = test: Antimicrobial activity against Mucor mucedo IFO 7684 after 2 days; format: functional; settings: IFO 7684, 48 h
# Micrococcus luteus = test: Antimicrobial activity against Micrococcus lysodeikticus IFO 3333 after 2 days; format: functional; settings: IFO 3333, 48 h
# Staphylococcus aureus = test: Antimicrobial activity against Staphylococcus aureus NCTC 8530 after 2 days; format: functional; settings: NCTC 8530, 48 h
# Escherichia coli = test: Antimicrobial activity against Escherichia coli IFO 3545 after 2 days; format: functional; settings: IFO 3545, 48 h
# Penicillium crustosum = test: Antimicrobial activity against Penicillium crustosum Thom after 2 days; format: functional; settings: 48 h
# Pseudomonas aeruginosa = test: Antimicrobial activity against Pseudomonas aeruginosa IAM 1007 after 2 days; format: functional; settings: IAM 1007, 48 h
# [5] = system: Schizosaccharomyces pombe; test: Antimicrobial activity against Schizosaccharomyces pombe IFO 0342 after 2 days; format: functional; settings: IFO 0342, 48 h
# Wickerhamomyces anomalus [6] = test: Antifungal activity against Hansenula anomala IFO 0136 in Henneberg medium at pH 5.2 after 2 days; format: functional; settings: IFO 0136, 48 h
# Saccharomyces cerevisiae [7] = test: Antifungal activity against Saccharomyces cerevisiae IFO 0203 in Henneberg medium at pH 7 after 2 days; format: functional; settings: IFO 0203, 48 h
# Saccharomyces cerevisiae [8] = test: Antifungal activity against Saccharomyces cerevisiae IFO 0203 in Malt Wort medium at pH 5 after 2 days; format: functional; settings: IFO 0203, 48 h
# Cyberlindnera jadinii [9] = test: Antifungal activity against Candida utilis ATCC 42402 in Malt Wort medium at pH 5 after 2 days; format: functional; settings: Williopsis jadinii, ATCC 42402, 48 h
# Saccharomyces cerevisiae [10] = test: Antifungal activity against Saccharomyces cerevisiae IFO 0203 assessed as leakage of cellular constituents at 1 to 10 ug/mL by phenol-sulphuric acid reagent method; format: functional, organism-based
# Wickerhamomyces anomalus [11] = test: Antifungal activity against Hansenula anomala IFO 0136 in Henneberg medium at pH 3.1 after 2 days; format: functional; settings: IFO 0136, 48 h
# Saccharomyces cerevisiae [12] = test: Antifungal activity against Saccharomyces cerevisiae IFO 0203 in Henneberg medium at pH 3.1 after 2 days; format: functional; settings: IFO 0203, 48 h
# Saccharomyces cerevisiae [13] = test: Antifungal activity against Saccharomyces cerevisiae IFO 0203 assessed as fetal loss of cellular constituents at 50 ug/mL after 10 mins by microscopy; format: functional, organism-based
# [14] = system: Schizosaccharomyces pombe; test: Antifungal activity against Schizosaccharomyces pombe IFO 0342 in Henneberg medium at pH 7 after 2 days; format: functional; settings: IFO 0342, 48 h
# Cyberlindnera jadinii [15] = test: Antifungal activity against Candida utilis ATCC 42402 in Henneberg medium at pH 7 after 2 days; format: functional; settings: Williopsis jadinii, ATCC 42402, 48 h
# [16] = system: Schizosaccharomyces pombe; test: Antifungal activity against Schizosaccharomyces pombe IFO 0342 in Henneberg medium at pH 5.2 after 2 days; format: functional; settings: IFO 0342, 48 h
# Saccharomyces cerevisiae [17] = test: Antifungal activity against Saccharomyces cerevisiae IFO 0203 assessed as organelle disorganization at 50 ug/mL after 10 mins by microscopy; format: functional, organism-based
# Wickerhamomyces anomalus [18] = test: Antifungal activity against Hansenula anomala IFO 0136 in Henneberg medium at pH 7 after 2 days; format: functional; settings: IFO 0136, 48 h
# [19] = system: Schizosaccharomyces pombe; test: Antifungal activity against Schizosaccharomyces pombe IFO 0342 in Malt Wort medium at pH 5 after 2 days; format: functional; settings: IFO 0342, 48 h
# Wickerhamomyces anomalus [20] = test: Antifungal activity against Hansenula anomala IFO 0136 in Malt Wort medium at pH 5 after 2 days; format: functional; settings: IFO 0136, 48 h
# [21] = system: Schizosaccharomyces pombe; test: Antifungal activity against Schizosaccharomyces pombe IFO 0342 in Henneberg medium at pH 3.1 after 2 days; format: functional; settings: IFO 0342, 48 h
# Saccharomyces cerevisiae [22] = test: Antifungal activity against Saccharomyces cerevisiae IFO 0203 assessed as leakage of cellular constituents at 1 to 10 ug/mL by folin reagent method; format: functional, organism-based
# Cyberlindnera jadinii [23] = test: Antifungal activity against Candida utilis ATCC 42402 in Henneberg medium at pH 5.2 after 2 days; format: functional; settings: Williopsis jadinii, ATCC 42402, 48 h
# Saccharomyces cerevisiae [24] = test: Antifungal activity against Saccharomyces cerevisiae IFO 0203 in Henneberg medium at pH 5.2 after 2 days; format: functional; settings: IFO 0203, 48 h
# Cyberlindnera jadinii [25] = test: Antifungal activity against Candida utilis ATCC 42402 in Henneberg medium at pH 3.1 after 2 days; format: functional; settings: Williopsis jadinii, ATCC 42402, 48 h
MIC (Proteus vulgaris),MIC (Sclerotinia),MIC (Cyberlindnera jadinii [1]),MIC (Bacillus subtilis),MIC (Aspergillus niger),MIC (Saccharomyces cerevisiae [2]),MIC (Wickerhamomyces anomalus [3]),MIC [4],MIC (Mucor mucedo),MIC (Micrococcus luteus),MIC (Staphylococcus aureus),MIC (Escherichia coli),MIC (Penicillium crustosum),MIC (Pseudomonas aeruginosa),MIC [5],Structure (SMILES),other results
> 100 µg/mL,3.13 µg/mL,3.13 µg/mL,> 100 µg/mL,50 µg/mL,1.56 µg/mL,25 µg/mL,100 µg/mL,25 µg/mL,> 100 µg/mL,> 100 µg/mL,> 100 µg/mL,50 µg/mL,> 100 µg/mL,25 µg/mL,C=C1[C@@H](C)CC[C@@]2(C)[C@H]1CC=C(C=O)[C@]2(O)C=O,
,,,,,,,,,,,,,,,"Cc1c2oc3c(C)ccc(C(=O)N[C@@H]4C(=O)N[C@H](C(C)C)C(=O)N5CCC[C@H]5C(=O)N(C)CC(=O)N(C)[C@@H](C(C)C)C(=O)O[C@@H]4C)c3nc-2c(C(=O)N[C@@H]2C(=O)N[C@H](C(C)C)C(=O)N3CCC[C@H]3C(=O)N(C)CC(=O)N(C)[C@@H](C(C)C)C(=O)O[C@@H]2C)c(N)c1=O (I: T[dV]P[Sar][NMeV] / II: T[dV]P[Sar][NMeV]; ester I:1-I:C, II:1-II:C; linker I:N-II:N via Actinocin(9to1))",Activity (Cyberlindnera jadinii [1]): inactive
> 100 µg/mL,1.56 µg/mL,1.56 µg/mL,> 100 µg/mL,25 µg/mL,0.78 µg/mL,1.56 µg/mL,12.5 µg/mL,6.25 µg/mL,> 100 µg/mL,> 100 µg/mL,> 100 µg/mL,25 µg/mL,> 100 µg/mL,6.25 µg/mL,CC1(C)CCC[C@]2(C)[C@@H](C=O)C(C=O)=CC[C@@H]12 [POLYGODIAL],MIC (Wickerhamomyces anomalus [6]): 6.25 µg/mL; MIC (Saccharomyces cerevisiae [7]): > 25 µg/mL; MIC (Saccharomyces cerevisiae [8]): 0.78 µg/mL; MIC (Cyberlindnera jadinii [9]): 1.56 µg/mL; Activity (Saccharomyces cerevisiae [10]): Active; MIC (Wickerhamomyces anomalus [11]): 1.56 µg/mL; MIC (Saccharomyces cerevisiae [12]): 0.2 µg/mL; Activity (Saccharomyces cerevisiae [13]): Active; MIC [14]: > 25 µg/mL; MIC (Cyberlindnera jadinii [15]): > 25 µg/mL; MIC [16]: 25 µg/mL; Activity (Saccharomyces cerevisiae [17]): Active; MIC (Wickerhamomyces anomalus [18]): > 25 µg/mL; MIC [19]: 6.25 µg/mL; MIC (Wickerhamomyces anomalus [20]): 1.56 µg/mL; MIC [21]: 6.25 µg/mL; Activity (Saccharomyces cerevisiae [22]): Active; MIC (Cyberlindnera jadinii [23]): 3.13 µg/mL; MIC (Saccharomyces cerevisiae [24]): 1.56 µg/mL; MIC (Cyberlindnera jadinii [25]): 0.78 µg/mL
> 100 µg/mL,3.13 µg/mL,3.13 µg/mL,> 100 µg/mL,50 µg/mL,3.13 µg/mL,12.5 µg/mL,100 µg/mL,25 µg/mL,> 100 µg/mL,> 100 µg/mL,> 100 µg/mL,50 µg/mL,> 100 µg/mL,12.5 µg/mL,CC1(C)CCC[C@@]2(C)[C@H]1CC=C(C=O)[C@]2(O)C=O [WARBURGANAL],
